For series [1], the target named is T1, Cytochrome P450 2E1 (Homo sapiens, UniProt P05181). Put plainly: Mechanism based inhibition of human cytochrome P450 2E1 measured by chlorzoxazone 6-hydroxylase activity. Format: ADME.
Series [2] has as its target T2, Cytochrome P450 2C8 (Homo sapiens, UniProt P10632).
T2 sequence (P10632 whole entry): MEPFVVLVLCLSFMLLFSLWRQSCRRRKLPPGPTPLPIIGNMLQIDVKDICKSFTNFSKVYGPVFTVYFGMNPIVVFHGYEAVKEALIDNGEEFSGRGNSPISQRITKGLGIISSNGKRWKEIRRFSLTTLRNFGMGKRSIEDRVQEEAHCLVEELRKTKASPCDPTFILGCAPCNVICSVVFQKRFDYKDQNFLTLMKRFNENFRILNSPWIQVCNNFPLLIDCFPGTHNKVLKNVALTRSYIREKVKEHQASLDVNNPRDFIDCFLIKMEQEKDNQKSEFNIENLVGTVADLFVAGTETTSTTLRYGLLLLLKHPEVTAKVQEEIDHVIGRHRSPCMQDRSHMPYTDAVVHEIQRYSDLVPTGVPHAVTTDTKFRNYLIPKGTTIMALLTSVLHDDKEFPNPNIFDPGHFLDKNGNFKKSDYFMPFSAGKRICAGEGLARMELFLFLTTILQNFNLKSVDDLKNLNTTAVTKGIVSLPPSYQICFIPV
Put plainly: Mechanism based inhibition of human cytochrome P450 2C8 using human liver microsomes. Format: ADME, Microsome. A general note: Liver microsomes are vesicles of endoplasmic reticulum, rich in cytochrome P450 enzymes.

Series [3] deals with T2, Cytochrome P450 2C8.
Description: (§4) Mechanism based inhibition of human cytochrome P450 2C8 measured by paclitaxel hydroxylation using a recombinant system
In the next series the target is T3, Cytochrome P450 2A6 (Homo sapiens, UniProt P11509).
T3 sequence (P11509 whole entry): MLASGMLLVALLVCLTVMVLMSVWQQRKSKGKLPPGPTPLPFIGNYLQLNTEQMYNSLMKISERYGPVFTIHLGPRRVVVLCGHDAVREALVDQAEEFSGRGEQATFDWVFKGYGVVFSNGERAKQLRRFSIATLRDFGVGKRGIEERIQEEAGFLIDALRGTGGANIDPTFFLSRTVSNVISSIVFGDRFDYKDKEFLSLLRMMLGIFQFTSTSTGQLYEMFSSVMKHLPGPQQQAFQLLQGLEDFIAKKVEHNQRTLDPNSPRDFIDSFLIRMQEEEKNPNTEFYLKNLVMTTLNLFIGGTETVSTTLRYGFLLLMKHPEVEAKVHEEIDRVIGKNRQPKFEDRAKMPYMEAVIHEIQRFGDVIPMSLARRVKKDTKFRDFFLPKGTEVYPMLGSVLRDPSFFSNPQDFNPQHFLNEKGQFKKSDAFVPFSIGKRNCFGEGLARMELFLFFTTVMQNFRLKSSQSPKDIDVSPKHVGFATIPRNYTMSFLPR
Kind of series: Mechanism based inhibition of human cytochrome P450 2A6 measured by coumarin 7-hydroxylation. It is filed as ADME.

Series [4] concerns the target T4, Cytochrome P450 1A2 (Homo sapiens, UniProt P05177).
T4 sequence (P05177 whole entry): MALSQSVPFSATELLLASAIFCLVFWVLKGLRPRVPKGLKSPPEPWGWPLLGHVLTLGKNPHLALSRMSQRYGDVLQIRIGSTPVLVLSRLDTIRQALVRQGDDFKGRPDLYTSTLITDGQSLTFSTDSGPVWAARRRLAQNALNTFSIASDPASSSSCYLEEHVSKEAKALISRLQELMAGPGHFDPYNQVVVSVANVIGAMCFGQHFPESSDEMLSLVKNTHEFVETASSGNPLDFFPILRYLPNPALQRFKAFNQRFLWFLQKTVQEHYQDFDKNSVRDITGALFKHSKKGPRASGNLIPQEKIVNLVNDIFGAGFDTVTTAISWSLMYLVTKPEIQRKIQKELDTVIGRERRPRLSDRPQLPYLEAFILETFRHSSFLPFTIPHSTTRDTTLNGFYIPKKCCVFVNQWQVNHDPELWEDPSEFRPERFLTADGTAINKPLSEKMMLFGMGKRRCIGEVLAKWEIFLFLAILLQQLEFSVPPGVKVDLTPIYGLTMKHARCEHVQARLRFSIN
Kind of series: Mechanism based inhibition of human cytochrome P450 1A2 measured by phenacetin O-deethylation (POD). It is filed as ADME.

In series [5] the target is T5, Cytochrome P450 2C19 (Homo sapiens, UniProt P33261). Kind of series: Mechanism based inhibition of human cytochrome P450 2C19 evaluated using Tolbutamide. It is filed as ADME.
A further series has as its target T6, Cytochrome P450 2B6 (Homo sapiens, UniProt P20813).
T6 sequence (P20813 whole entry): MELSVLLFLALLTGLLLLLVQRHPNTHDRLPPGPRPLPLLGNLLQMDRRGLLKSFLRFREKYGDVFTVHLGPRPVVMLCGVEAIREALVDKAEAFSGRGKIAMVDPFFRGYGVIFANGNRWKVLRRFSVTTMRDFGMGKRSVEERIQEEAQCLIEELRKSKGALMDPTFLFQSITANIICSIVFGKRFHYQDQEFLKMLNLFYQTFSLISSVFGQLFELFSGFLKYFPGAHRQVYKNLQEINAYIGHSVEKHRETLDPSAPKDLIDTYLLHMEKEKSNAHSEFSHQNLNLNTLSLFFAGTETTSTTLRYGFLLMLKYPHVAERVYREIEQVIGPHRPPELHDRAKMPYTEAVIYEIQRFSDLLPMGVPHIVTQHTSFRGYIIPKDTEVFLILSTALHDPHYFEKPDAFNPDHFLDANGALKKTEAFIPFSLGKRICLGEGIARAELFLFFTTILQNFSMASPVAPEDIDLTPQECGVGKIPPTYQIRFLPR
Put plainly: Mechanism based inhibition of human cytochrome P450 2B6. Format: ADME.

Series [6] addresses T5, Cytochrome P450 2C19. Kind of series: Mechanism based inhibition of human cytochrome P450 2C19. It is filed as ADME.
Series [7] deals with T7, Cytochrome P450 2C9 (Homo sapiens, UniProt P11712). Put plainly: Mechanism based inhibition of human cytochrome P450 2C9. Format: ADME.
For series [8], the target named is T8, CYP2D6 (Homo sapiens, UniProt P10635). Kind of series: (§1) Mechanism based inhibition of human cytochrome P450 2D6 measured by dextromethorphan O-demethylation using recombinant CYP2D6. It is filed as ADME. The note with it: human, recombinant CYP2D6, probe dextromethorphan.
Series [9] addresses T9, Cytochrome P450 2D6 (Homo sapiens, UniProt P10635). The series is described as §1. Format: ADME.
In series [10] the target is T8, CYP2D6. Kind of series: (§2) Mechanism based inhibition of human cytochrome P450 2D6 measured by dextromethorphan O-demethylation using human liver microsomes. The note with it: human, human liver microsomes, probe dextromethorphan. It is filed as ADME, Microsome.
For series [11], the target named is T9, Cytochrome P450 2D6. Described as §2. Format: ADME, Microsome.
Series [12] addresses T10, Cytochrome P450 3A4 (Homo sapiens, UniProt P08684). Kind of series: Mechanism based inhibition of human cytochrome P450 3A4 measured by 1'-hydroxymidazolam production. Format: ADME.
The target in series [13] is T10, Cytochrome P450 3A4. Put plainly: Mechanism based inhibition of human cytochrome P450 3A4 measured by testosterone 6-beta hydroxylation. It is filed as ADME.
The target in series [14] is T7, Cytochrome P450 2C9. Kind of series: Mechanism based inhibition of human cytochrome P450 2C9 measured by Tolbutamide methyl hydroxylation. Format: ADME.
The target in series [15] is T4, Cytochrome P450 1A2. Put plainly: Mechanism based inhibition of human cytochrome P450 1A2 measured by 7-ethoxyresorufin O-deethylation (EROD). Format: ADME.
Series [16] concerns the target T11, CYP2C8 (Homo sapiens, UniProt P10632).
T11 sequence (P10632 whole entry): T2 sequence (P10632 whole entry)
Kind of series: in vitro. The note with it: recombinant CYP2C8, probe paclitaxel.
Description: as §4

Series [17] has as its target T2, Cytochrome P450 2C8. The source holds these as a separate data set.
Description: (§5) Mechanism based inhibition of human cytochrome P450 2C8 measured by paclitaxel hydroxylation using human liver microsomes
The target of series [18] is T11, CYP2C8. Put plainly: in vitro. The note with it: human liver microsomes, probe paclitaxel.
Description: as §5
The next series deals with T12, Cytochrome P450 2B1 (Rattus norvegicus, UniProt P00176).
T12 sequence (P00176 whole entry): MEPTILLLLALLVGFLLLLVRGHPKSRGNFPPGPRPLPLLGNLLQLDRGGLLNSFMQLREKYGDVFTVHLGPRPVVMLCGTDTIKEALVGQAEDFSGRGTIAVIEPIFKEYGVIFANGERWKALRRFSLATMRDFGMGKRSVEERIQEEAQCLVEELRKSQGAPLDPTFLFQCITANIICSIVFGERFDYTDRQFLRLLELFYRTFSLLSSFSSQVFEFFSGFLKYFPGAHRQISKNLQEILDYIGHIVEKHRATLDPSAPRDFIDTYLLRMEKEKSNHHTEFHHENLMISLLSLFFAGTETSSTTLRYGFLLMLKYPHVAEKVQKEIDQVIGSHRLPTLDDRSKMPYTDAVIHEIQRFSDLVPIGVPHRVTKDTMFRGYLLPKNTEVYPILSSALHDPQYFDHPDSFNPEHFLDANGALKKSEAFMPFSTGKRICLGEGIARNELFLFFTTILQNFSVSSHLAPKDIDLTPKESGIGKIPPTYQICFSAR
Kind of series: Mechanism based inhibition of rat cytochrome P450 CYP2B1 measured by 7-EFC O-deethylation activity. Format: ADME. The note with it: rat.

The target in series [19] is T1, Cytochrome P450 2E1. Put plainly: (§3) Mechanism based inhibition of human cytochrome P450 2E1. Format: ADME.
The target of another series is CYP2E1 (Homo sapiens, UniProt P05181). The description is as §3. It is filed as ADME. The note with it: human.
Series [20] concerns the target T7, Cytochrome P450 2C9. Kind of series: Mechanism based inhibition of human cytochrome P450 2C9 measured by 7-EFC O-deethylation. It is filed as ADME.

T7 sequence (P11712 whole entry): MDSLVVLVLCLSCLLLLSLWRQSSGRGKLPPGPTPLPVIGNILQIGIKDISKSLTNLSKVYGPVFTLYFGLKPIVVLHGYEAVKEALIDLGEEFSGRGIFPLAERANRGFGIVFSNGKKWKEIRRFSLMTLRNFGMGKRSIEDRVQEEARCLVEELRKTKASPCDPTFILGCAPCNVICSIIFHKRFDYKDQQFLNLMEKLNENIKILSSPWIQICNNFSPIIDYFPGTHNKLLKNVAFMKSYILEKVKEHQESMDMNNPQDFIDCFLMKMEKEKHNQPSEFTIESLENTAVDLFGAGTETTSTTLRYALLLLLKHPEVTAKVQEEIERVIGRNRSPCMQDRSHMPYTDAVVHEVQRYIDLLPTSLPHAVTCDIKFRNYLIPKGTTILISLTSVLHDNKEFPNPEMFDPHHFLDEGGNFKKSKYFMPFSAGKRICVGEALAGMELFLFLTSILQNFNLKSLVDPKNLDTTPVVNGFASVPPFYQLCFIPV
T8 sequence (P10635 whole entry): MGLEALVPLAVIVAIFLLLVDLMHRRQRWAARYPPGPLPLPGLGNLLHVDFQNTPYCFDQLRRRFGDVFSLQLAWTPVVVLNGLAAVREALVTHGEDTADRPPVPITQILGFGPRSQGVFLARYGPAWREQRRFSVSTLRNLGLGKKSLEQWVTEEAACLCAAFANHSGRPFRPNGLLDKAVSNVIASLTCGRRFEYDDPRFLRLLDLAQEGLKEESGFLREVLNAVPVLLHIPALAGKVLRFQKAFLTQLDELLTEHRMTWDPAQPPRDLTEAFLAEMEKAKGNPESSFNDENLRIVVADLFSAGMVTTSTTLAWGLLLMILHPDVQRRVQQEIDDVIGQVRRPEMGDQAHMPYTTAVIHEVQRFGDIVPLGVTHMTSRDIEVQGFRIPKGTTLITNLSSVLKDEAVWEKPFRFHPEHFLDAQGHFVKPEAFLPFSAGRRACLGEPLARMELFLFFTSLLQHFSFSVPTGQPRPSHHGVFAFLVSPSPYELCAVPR
T9 sequence (P10635 whole entry): as above
T1 sequence (P05181 whole entry): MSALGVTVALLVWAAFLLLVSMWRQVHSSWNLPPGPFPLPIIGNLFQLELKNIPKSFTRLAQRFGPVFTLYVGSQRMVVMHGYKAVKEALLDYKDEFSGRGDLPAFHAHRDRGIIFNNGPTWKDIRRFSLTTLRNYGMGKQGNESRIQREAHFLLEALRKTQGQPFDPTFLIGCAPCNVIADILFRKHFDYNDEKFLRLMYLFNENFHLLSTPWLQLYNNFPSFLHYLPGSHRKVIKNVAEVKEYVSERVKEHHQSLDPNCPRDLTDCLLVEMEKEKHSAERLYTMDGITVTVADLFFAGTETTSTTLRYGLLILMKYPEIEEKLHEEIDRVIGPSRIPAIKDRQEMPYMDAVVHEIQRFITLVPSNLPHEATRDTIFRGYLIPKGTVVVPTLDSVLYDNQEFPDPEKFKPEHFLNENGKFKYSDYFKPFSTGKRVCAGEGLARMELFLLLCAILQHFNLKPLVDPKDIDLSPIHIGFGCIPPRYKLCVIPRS
T10 sequence (P08684 whole entry): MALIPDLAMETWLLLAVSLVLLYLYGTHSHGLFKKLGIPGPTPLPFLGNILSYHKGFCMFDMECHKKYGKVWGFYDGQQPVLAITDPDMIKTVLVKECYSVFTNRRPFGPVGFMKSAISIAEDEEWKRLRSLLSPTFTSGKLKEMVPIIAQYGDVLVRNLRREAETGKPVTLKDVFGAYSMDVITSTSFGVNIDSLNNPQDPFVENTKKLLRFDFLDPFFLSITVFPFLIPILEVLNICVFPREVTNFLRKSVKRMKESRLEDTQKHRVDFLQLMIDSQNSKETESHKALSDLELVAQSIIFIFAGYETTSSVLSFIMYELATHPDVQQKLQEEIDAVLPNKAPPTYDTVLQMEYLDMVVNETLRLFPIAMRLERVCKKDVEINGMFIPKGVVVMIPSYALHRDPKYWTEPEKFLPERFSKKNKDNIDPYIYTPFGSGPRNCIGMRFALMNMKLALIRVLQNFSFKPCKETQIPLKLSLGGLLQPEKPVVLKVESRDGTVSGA
T5 sequence (P33261 whole entry): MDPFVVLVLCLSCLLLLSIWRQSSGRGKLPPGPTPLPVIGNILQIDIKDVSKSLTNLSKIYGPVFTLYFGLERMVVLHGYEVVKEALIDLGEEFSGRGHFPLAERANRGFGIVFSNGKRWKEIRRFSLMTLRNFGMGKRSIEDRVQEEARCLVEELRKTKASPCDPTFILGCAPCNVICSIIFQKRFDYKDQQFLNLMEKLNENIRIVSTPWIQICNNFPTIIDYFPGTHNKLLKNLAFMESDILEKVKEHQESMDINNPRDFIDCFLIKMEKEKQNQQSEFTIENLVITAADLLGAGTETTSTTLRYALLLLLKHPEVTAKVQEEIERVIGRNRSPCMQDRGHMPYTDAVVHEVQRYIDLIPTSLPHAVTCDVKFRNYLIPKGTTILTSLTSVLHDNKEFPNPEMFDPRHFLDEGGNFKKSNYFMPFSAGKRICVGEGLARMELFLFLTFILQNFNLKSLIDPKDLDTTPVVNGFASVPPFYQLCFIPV
Chain of CYP2E1 (P05181 whole entry): as the sequence (P05181 whole entry) above

As to `FC(F)(F)C(Cl)Br` (stereo not given) [HALOTHANE], the mechanism based inhibition result on Cytochrome P450 2E1 [1] is recorded as “Cytochrome P450 mechanistic inhibitor: PMID 8902272”.

Consider `NNC(=O)c1ccncc1` [ISONIAZID], for which the Ki worked out at 170 µM on Cytochrome P450 2C8 [2]; 374 µM on Cytochrome P450 2C8 [3]; 60 µM on Cytochrome P450 2A6; 56 µM at Cytochrome P450 1A2 [4]; 10 µM at Cytochrome P450 2C19 [5].

As for `Cn1cc[nH]c1=S` [METHIMAZOLE], the mechanism based inhibition entry at Cytochrome P450 2B6, at Cytochrome P450 2C19 [6] and at Cytochrome P450 2C9 [7] was “Cytochrome P450 mechanistic inhibitor: PMID 9172960” each time.

For `CNC(C)Cc1ccc2c(c1)OCO2` (stereo not given) [MIDOMAFETAMINE], the kinact (commonly the rate constant of inactivation at saturating inhibitor) at CYP2D6 [8] was 0.00483 s⁻¹; at CYP2D6 [10], 0.00283 s⁻¹. For the same molecule, the Ki stood at 12.9 µM at Cytochrome P450 2D6 [9] and 22.8 µM at Cytochrome P450 2D6 [11].

Consider `CCc1nn(CCCN2CCN(c3cccc(Cl)c3)CC2)c(=O)n1CCOc1ccccc1` [NEFAZODONE], for which the mechanism based inhibition result at Cytochrome P450 3A4 [12] is reported as “Cytochrome P450 mechanistic inhibitor: PMID 15523046”.

In the case of `CCOP(=S)(OCC)Oc1ccc([N+](=O)[O-])cc1` [PARATHION], the mechanism based inhibition result at Cytochrome P450 3A4 [13], at Cytochrome P450 2C9 [14] and on Cytochrome P450 1A2 [15] was “Cytochrome P450 mechanistic inhibitor: PMID 9023313” each time.

For `NNCCc1ccccc1` [PHENELZINE], the Ki turned out to be 1.2 µM at Cytochrome P450 2C8 [3] and 54.3 µM on Cytochrome P450 2C8 [17]. Also, the kinact at CYP2C8 [16] was 0.00405 s⁻¹; on CYP2C8 [18] it was 0.00283 s⁻¹.

As to `S=C=NCCc1ccccc1` [PHENETHYLISOTHIOCYANATE], on Cytochrome P450 2B1, the mechanism based inhibition entry is “Cytochrome P450 mechanistic inhibitor: PMID 11454729”. This molecule also displayed a Ki on Cytochrome P450 2E1 [19] of 9.98 µM. In addition, on CYP2E1, the kinact was 0.00565 s⁻¹.

Molecule `COc1cc(C2Oc3cc([C@H]4Oc5cc(O)cc(O)c5C(=O)[C@@H]4O)ccc3OC2CO)ccc1O` (stereo not given in full) [SILIBININ] gave a Ki at Cytochrome P450 2C9 [20] of 5 µM.

Values taken from ChEMBL document CHEMBL1743341, “Cytochrome p450 enzymes mechanism based inhibitors: common sub-structures and reactivity” (Curr Drug Metab, 2005).
